The values that follow come from patent publication US11427553B2, “Dihydrooxadiazinones” (Bayer Aktiengesellschaft, priority 2017, dated 2022).

Test [1] deals with SK-MEL-3 cells. Nature of the test: Assay 1 cell proliferation measurement (CTG, 72 h), SK-MEL-3. Type of test: cell-based, human. The following applies: Assay 1, 72 h, Cell Titer Glo, read-out: SK-MEL-3 IC50 [nM] (melanoma). The essentials:
(§1)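 Growth inhibition relative to a 0 h baseline plate and 0.3% DMSO control, with IC50 fitted by 4-parameter curve. Compound exposure lasted 72 h at 37 °C across a 2.5-fold, 10-step series starting generally at 100 nM final.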

The test system of test [2] is HeLa cells. Nature of the test: Assay 1 cell proliferation measurement (CTG, 72 h), HeLa. Type of test: cell-based, human. The conditions noted are these: Assay 1, 72 h, Cell Titer Glo, read-out: HeLa IC50 [nM] (Cervical cancer). The essentials: as §1
Test [3] concerns the target human full length PDE3B (Homo sapiens (Human), UniProt Q13370). Put plainly: Assay 5 PDE3B enzyme inhibition (3H-cAMP SPA). The test is classed as biochemical. The conditions noted are these: Sf9 cell extract. The gist of the method: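 Hydrolysis of tritiated cAMP by Sf9-expressed full-length human PDE3B proceeded 60 min at room temperature in Tris buffer pH 7.5 containing Mg2+, EDTA and BSA, with enzyme dilution keeping substrate consumption below 70%. IC50 derived from percent activity versus log compound concentration.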

For test [4], the target named is human full length PDE3A (Homo sapiens (Human), UniProt Q14432). Put plainly: Assay 4 PDE3A enzyme inhibition (3H-cAMP SPA). Type of test: biochemical. The conditions noted are these: Sf9 cell extract. The gist of the method:
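Enzyme: Sf9 extract with overexpressed full-length PDE3A; substrate [8-3H]cAMP, 0.025 μCi/well; 60 min, room temperature, Tris/HCl pH 7.5 buffer with MgCl2, EDTA, BSA.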

Counter-ions that a name gives are not always drawn. Like-named read-outs stand apart in the source and are kept apart here.

human full length PDE3B, sequence (Q13370 whole entry): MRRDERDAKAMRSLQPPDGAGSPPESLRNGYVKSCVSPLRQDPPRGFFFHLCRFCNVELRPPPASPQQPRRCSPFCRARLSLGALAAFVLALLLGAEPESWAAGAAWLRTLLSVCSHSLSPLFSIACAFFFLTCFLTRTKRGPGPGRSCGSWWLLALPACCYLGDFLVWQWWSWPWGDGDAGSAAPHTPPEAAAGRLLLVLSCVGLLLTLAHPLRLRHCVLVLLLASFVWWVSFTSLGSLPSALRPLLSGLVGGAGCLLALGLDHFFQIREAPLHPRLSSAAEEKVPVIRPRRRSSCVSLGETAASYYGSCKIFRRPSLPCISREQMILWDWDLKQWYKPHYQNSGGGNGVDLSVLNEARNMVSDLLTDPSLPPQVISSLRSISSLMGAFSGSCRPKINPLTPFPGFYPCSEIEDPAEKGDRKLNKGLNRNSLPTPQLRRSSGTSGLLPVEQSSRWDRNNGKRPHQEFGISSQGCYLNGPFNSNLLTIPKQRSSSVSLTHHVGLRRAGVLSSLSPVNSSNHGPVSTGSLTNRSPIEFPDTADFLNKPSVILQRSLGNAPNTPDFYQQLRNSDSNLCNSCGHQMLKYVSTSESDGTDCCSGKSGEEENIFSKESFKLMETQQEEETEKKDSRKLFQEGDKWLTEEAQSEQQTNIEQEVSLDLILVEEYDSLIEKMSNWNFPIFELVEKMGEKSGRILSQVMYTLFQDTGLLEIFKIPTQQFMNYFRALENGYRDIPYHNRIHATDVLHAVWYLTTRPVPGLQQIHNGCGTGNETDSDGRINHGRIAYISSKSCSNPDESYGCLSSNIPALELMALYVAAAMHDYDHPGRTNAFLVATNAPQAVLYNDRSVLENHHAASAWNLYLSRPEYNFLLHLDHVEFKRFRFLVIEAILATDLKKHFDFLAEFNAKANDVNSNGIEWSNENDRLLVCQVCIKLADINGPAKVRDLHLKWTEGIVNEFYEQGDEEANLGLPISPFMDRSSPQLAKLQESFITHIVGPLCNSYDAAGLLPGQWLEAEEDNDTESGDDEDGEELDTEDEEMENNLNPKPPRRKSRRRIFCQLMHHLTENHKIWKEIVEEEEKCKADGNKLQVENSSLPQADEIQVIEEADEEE
human full length PDE3A, sequence (Q14432 whole entry): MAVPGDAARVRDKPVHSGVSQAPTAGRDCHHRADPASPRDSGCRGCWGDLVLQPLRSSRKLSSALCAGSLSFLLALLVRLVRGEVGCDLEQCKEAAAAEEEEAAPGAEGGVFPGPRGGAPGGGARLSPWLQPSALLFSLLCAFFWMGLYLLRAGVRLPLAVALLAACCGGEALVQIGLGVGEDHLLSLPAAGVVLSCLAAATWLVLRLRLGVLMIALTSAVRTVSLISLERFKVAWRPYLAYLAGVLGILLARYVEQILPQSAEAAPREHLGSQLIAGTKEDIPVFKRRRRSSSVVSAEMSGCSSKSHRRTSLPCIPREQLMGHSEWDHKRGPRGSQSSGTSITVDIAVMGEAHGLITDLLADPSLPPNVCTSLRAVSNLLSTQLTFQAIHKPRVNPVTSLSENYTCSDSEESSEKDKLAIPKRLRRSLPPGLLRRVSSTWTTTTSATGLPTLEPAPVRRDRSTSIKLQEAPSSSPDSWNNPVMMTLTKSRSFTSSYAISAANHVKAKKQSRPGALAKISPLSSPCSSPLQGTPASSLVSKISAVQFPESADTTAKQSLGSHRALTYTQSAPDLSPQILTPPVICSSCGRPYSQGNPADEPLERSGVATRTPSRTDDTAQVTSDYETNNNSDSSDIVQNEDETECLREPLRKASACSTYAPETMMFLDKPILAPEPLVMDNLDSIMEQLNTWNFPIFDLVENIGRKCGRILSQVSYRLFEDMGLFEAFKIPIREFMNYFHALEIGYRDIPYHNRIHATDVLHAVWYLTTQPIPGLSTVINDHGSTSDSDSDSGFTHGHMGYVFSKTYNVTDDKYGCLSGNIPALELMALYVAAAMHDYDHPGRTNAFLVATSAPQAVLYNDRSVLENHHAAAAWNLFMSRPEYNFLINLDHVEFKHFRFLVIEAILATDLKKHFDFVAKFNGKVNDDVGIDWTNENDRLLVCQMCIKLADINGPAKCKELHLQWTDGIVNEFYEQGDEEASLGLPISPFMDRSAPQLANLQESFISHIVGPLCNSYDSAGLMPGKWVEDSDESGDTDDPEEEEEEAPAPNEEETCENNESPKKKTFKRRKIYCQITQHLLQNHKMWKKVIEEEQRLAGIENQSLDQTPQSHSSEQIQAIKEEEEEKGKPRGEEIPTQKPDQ

Consider `Cc1ncc(-c2ccc(C3=NNC(=O)OC3)cc2C)cn1` [Example 28, 5-[3-Methyl-4-(2-methylpyrimidin-5-yl)phenyl]-3,6-dihydro-2H-1,3,4-oxadiazin-2-one], for which the concentration for half-maximal inhibition (IC50) in test [1] (Homo sapiens, SK-MEL3) was 28 nM; in test [2] (Homo sapiens, HeLa) it was 14 nM; in test [3], 40 nM; in test [4], 31 nM.
Regarding `COc1ccc(-c2ccc(C3=NNC(=O)O[C@H]3C)cc2C(F)(F)F)cn1` [Example 187, (6S)-5-[4-(6-Methoxypyridin-3-yl)-3-(trifluoromethyl)phenyl]-6-methyl-3,6-dihydro-2H-1,3,4-oxadiazin-2-one], the IC50 worked out at 40 nM in test [1] (Homo sapiens, SK-MEL3); 23 nM in test [2] (Homo sapiens, HeLa); 100 nM in test [3]; 81 nM in test [4].
On the same counts, the results for `O=C1NN=C(c2ccc(Br)c(C(F)F)c2)CO1` [Intermediate 77, 5-[4-Bromo-3-(difluoromethyl)phenyl]-3,6-dihydro-2H-1,3,4-oxadiazin-2-one] are 65 nM, 40 nM, 330 nM and 150 nM.
Regarding `Cn1cnc2ccc(-c3ccc(C4=NNC(=O)OC4)cc3C(F)(F)F)cc21` [Example 73, 5-[4-(1-Methyl-1H-benzimidazol-6-yl)-3-(trifluoromethyl)phenyl]-3,6-dihydro-2H-1,3,4-oxadiazin-2-one], the IC50 amounted to 46 nM in test [1] (Homo sapiens, SK-MEL3); 25 nM in test [2] (Homo sapiens, HeLa); 41 nM in test [3]; 18 nM in test [4].
For the compound `Cn1cc(-c2ccc(C3=NNC(=O)OC3)cc2OC(F)(F)F)cn1` [Example 68, 5-[4-(1-Methyl-1H-pyrazol-4-yl)-3-(trifluoromethoxy)phenyl]-3,6-dihydro-2H-1,3,4-oxadiazin-2-one], the IC50 in test [1] (Homo sapiens, SK-MEL3) came out at 6 nM; in test [2] (Homo sapiens, HeLa), 4 nM; in test [3], 152 nM; in test [4], 81 nM.
On the same counts, the results for `CCCCCNc1ccc(C2=NNC(=O)OC2)cc1C(F)(F)F` [Example 74, 5-[4-(Pentylamino)-3-(trifluoromethyl)phenyl]-3,6-dihydro-2H-1,3,4-oxadiazin-2-one] are 23 nM, 11 nM, 100 nM and 42 nM.
On to `O=C1NN=C(c2ccc(-c3ccccc3)c(F)c2)CO1` [Example 89, 5-(2-Fluorobiphenyl-4-yl)-3,6-dihydro-2H-1,3,4-oxadiazin-2-one], for which the concentration for half-maximal inhibition (IC50) in test [1] (Homo sapiens, SK-MEL3) amounted to 5 nM; in test [2] (Homo sapiens, HeLa) it was 2 nM; in test [3], 140 nM; in test [4] it was 110 nM.
In the case of `Cc1ccc(-c2ccc(C3=NNC(=O)OC3)cc2C(F)(F)F)cn1` [Example 32, 5-[4-(6-Methylpyridin-3-yl)-3-(trifluoromethyl)phenyl]-3,6-dihydro-2H-1,3,4-oxadiazin-2-one], the concentration for half-maximal inhibition (IC50) in test [1] (Homo sapiens, SK-MEL3) stood at 7 nM; in test [2] (Homo sapiens, HeLa), 5 nM; in test [3] it was 110 nM; in test [4], 67 nM.
In the same order, the values of `Nc1cccc(-c2ccc(C3=NNC(=O)OC3)cc2F)c1` [Example 91, 5-[4-(3-Aminophenyl)-3-fluoro-phenyl]-3,6-dihydro-1,3,4-oxadiazin-2-one] are 17 nM, 14 nM, 85 nM and 68 nM.
With `Cc1cnccc1-c1ccc(C2=NNC(=O)OC2)cc1F` [Example 78, 5-[3-Fluoro-4-(3-methylpyridin-4-yl)phenyl]-3,6-dihydro-2H-1,3,4-oxadiazin-2-one], the IC50 in test [1] (Homo sapiens, SK-MEL3) is 21 nM; in test [2] (Homo sapiens, HeLa), 10 nM; in test [3], 48 nM; in test [4], 29 nM.
Take `CCCNc1ccc(C2=NNC(=O)OC2)cc1C(F)(F)F` [Example 69, 5-[4-(Propylamino)-3-(trifluoromethyl)phenyl]-3,6-dihydro-2H-1,3,4-oxadiazin-2-one]: the 50% inhibitory concentration (IC50) in test [1] (Homo sapiens, SK-MEL3) is 1 nM; in test [2] (Homo sapiens, HeLa) it was 1 nM; in test [3], 47 nM; in test [4] it was 31 nM.
As for `O=C1NN=C(c2ccc(-c3cc(F)cc(F)c3)c(F)c2)CO1` [Example 110, 5-(2,3′,5′-Trifluoro[1,1′-biphenyl]-4-yl)-3,6-dihydro-2H-1,3,4-oxadiazin-2-one], the IC50 worked out at 14 nM in test [1] (Homo sapiens, SK-MEL3); 8 nM in test [2] (Homo sapiens, HeLa); 140 nM in test [3]; 100 nM in test [4].
On the same counts, the results for `NC12CC1CN(c1ccc(C3=NNC(=O)OC3)cc1C(F)(F)F)C2` (racemic) [Example 275, (rac)-5-{4-[1-amino-3-azabicyclo[3.1.0]hexan-3-yl]-3-(trifluoromethyl)phenyl}-3,6-dihydro-2H-1,3,4-oxadiazin-2-one-salt with hydrochloric acid] are 7 nM, 5 nM, 64 nM and 29 nM.
On the same counts, the results for `O=C1NN=C(c2ccc(-c3c[nH]nc3C(F)(F)F)c(C(F)(F)F)c2)CO1` [Example 130, 5-{3-(Trifluoromethyl)-4-[3-(trifluoromethyl)-1H-pyrazol-4-yl]phenyl}-3,6-dihydro-2H-1,3,4-oxadiazin-2-one] are 25600 nM, above 100 nM, 160 nM and 200 nM.
For the compound `O=C1NN=C(c2cc(F)c(N3CCOCC3)c(F)c2)CO1` [Example 21, 5-[3,5-Difluoro-4-(morpholin-4-yl)phenyl]-3,6-dihydro-2H-1,3,4-oxadiazin-2-one], the IC50 was above 67 nM in test [1] (Homo sapiens, SK-MEL3); 15 nM in test [2] (Homo sapiens, HeLa); 185 nM in test [3]; 175 nM in test [4].
On the same counts, the results for `CCCCN(C)c1ccc(C2=NNC(=O)OC2)cc1C(F)(F)F` [Example 134, 5-{4-[Butyl(methyl)amino]-3-(trifluoromethyl)phenyl}-3,6-dihydro-2H-1,3,4-oxadiazin-2-one] are 26 nM, 12 nM, 580 nM and 270 nM.
In the same order, the values of `O=C1NN=C(c2ccc(Br)c(C(F)(F)F)c2)CO1` [Intermediate 78, 5-[4-bromo-3-(trifluoromethyl)phenyl]-3,6-dihydro-2H-1,3,4-oxadiazin-2-one] are 20 nM, 8 nM, 180 nM and 140 nM.
In the same order, the values of `Cc1nc2cc(-c3ccc(C4=NNC(=O)OC4)cc3C(F)(F)F)ccc2s1` [Example 325, 5-[4-(2-methyl-1,3-benzothiazol-5-yl)-3-(trifluoromethyl)phenyl]-3,6-dihydro-2H-1,3,4-oxadiazin-2-one] are above 100 nM, above 100 nM, 150 nM and 56 nM.
Regarding `Cc1ccc(-c2ccc(C3=NNC(=O)OC3)cc2F)cc1N` [Example 103, 5-(3′-Amino-2-fluoro-4′-methyl[1,1′-biphenyl]-4-yl)-3,6-dihydro-2H-1,3,4-oxadiazin-2-one], the half-inhibitory concentration (IC50) in test [1] (Homo sapiens, SK-MEL3) was determined as 6 nM; in test [2] (Homo sapiens, HeLa) it was 3 nM; in test [3], 140 nM; in test [4] it was 66 nM.
On to `O=C1NN=C(c2ccc(C3=CCCC3)c(C(F)(F)F)c2)CO1` [Example 150, 5-[4-(Cyclopent-1-en-1-yl)-3-(trifluoromethyl)phenyl]-3,6-dihydro-2H-1,3,4-oxadiazin-2-one], for which the IC50 in test [1] (Homo sapiens, SK-MEL3) worked out at 5 nM; in test [2] (Homo sapiens, HeLa), 2 nM; in test [3], 250 nM; in test [4], 240 nM.
On the same counts, the results for `C[C@@H]1OC(=O)NN=C1c1ccc(N2CCOCC2)c(C(F)(F)F)c1` [Example 120, (6S)-6-Methyl-5-[4-(morpholin-4-yl)-3-(trifluoromethyl)phenyl]-3,6-dihydro-2H-1,3,4-oxadiazin-2-one] are 1 nM, 0.3 nM, 4 nM and 6 nM.
In the case of `CCNc1ccc(C2=NNC(=O)OC2)cc1C(F)(F)F` [Example 67, 5-[4-(Ethylamino)-3-(trifluoromethyl)phenyl]-3,6-dihydro-2H-1,3,4-oxadiazin-2-one], the IC50 was 5 nM in test [1] (Homo sapiens, SK-MEL3); 3 nM in test [2] (Homo sapiens, HeLa); 63 nM in test [3]; 47 nM in test [4].
For `O=C1NN=C(c2ccc(C3=CCCC3)c(F)c2)CO1` [Example 83, 5-[4-(Cyclopent-1-en-1-yl)-3-fluorophenyl]-3,6-dihydro-2H-1,3,4-oxadiazin-2-one], the IC50 came out at 6 nM in test [1] (Homo sapiens, SK-MEL3); 3 nM in test [2] (Homo sapiens, HeLa); 250 nM in test [3]; 100 nM in test [4].
In the case of `C[C@H]1C[C@H](C)N1c1ccc(C2=NNC(=O)OC2)cc1C(F)(F)F` (relative stereo) [Example 208, (cis or trans)-5-{4-[2,4-Dimethylazetidin-1-yl]-3-(trifluoromethyl)phenyl}-3,6-dihydro-2H-1,3,4-oxadiazin-2-one], the IC50 was 7 nM in test [1], 5 nM in test [2], 140 nM in test [3] and 110 nM in test [4].
